How the values were obtained:
CB1R mRNA = assay: CB1R gene silencing by siRNA/EP in peritoneal elicited macrophages (PEC), qPCR; assay type: cell-based, rat
Protocol: (§1) Eight-week old ZDF rats were injected i.p. with 4% thioglycollate broth (Sigma-Aldrich). Five days following injection, the peritoneal cavity was washed with PBS and peritoneal fluid was filtered through a 70 μm diameter pore nylon mesh and centrifuged. The pellet was first treated with red blood cell lysis buffer and plated in DMEM supplemented with 10% fetal bovine serum (FBS), 50 μg/ml streptomycin and 50 units/ml penicillin. 24 hours after isolation peritoneal elicited cells (PEC) were treated with siRNA. Eighty, 160 or 240 pmoles of scrambled or CB1R siRNA (Dharmacon) was incubated with 3 nmoles EP in PBS for 15 min and added to 1×10^6 cells. 48 hours after treatment, mRNA were extracted, reversed transcribed and the degree of CB1R knock-down was analyzed by qPCR.
(§2) Total mRNA from the liver, pancreas and kidney were extracted with Trizol (Invitrogen), while total mRNA from cells was extracted using RNEASY™ Mini Kit (Qiagen). All extractions were followed by DNase I treatment (Invitrogen). Total mRNA was reverse-transcribed using the ISCRIPT™ cDNA kit (Bio-Rad). Real-time PCR was performed as described previously (Jourdan, et al. 2010 Diabetes 59:926-934) in a 96-well plate using a STEPONEPLUS™ real time PCR system (Applied Biosystems). QUANTITECT™ Primer Assays were used to detect gene expression (Table 3, which lists the primers used for rat and mice (tissue)). […]

CB2R mRNA = assay: siRNA specificity: CB2 receptor expression in peritoneal elicited macrophages (PEC); assay type: cell-based, rat; details: thioglycollate-induced PEC
Protocol: The specificity of each siRNA was measured in terms of knockdown of CB2 receptor expression, and a dose-response analysis of siRNA C was carried out.
as §1
as §2, with “Real-time PCR was performed as described previously (Jourdan, et al. 2010 Diabetes 59:926-934) in a 96-well plate using a STEPONEPLUS™ real time PCR system (Applied Biosystems).” left out

[1] = test system: Zucker diabetic fatty (ZDF) rats; assay: 10-day i.p. treatment of ZDF rats with glucan-encapsulated CB1R siRNA (GeRPs); assay type: in vivo, rat; details: daily i.p. GeRPs for 10 days
Protocol: Blood glucose levels were determined using the Elite glucometer (Bayer, Pittsburgh, Pa.). […] Plasma insulin was measured using the Ultra Sensitive rat Insulin ELISA kit (Crystal Chem Inc). Hemoglobin A1c was determined using the Rat Hemoglobin A1c (HbA1c) assay kit (Crystal Chem) and c-peptide was quantified by ELISA (C-peptide (rat) ELISA, ALPCO). Serum leptin and adiponectin were determined by ELISA (B-Bridge International). α-amylase, lipase, and uric acid concentrations were determined using commercially available colorimetric kits (BioAssay Systems). TNF-α and IL-1β were determined using TNF-α ELISA Kit (for Lysates) (RayBiotech, Inc.) and IL1β Rat ELISA Kit (Abeam), respectively.
Pancreas was fixed in 10% neutral buffered formalin (NBF), embedded in paraffin and sectioned ([…]) onto glass slides. […] For detection, secondary Ab coupled to FITC or PE were used (Table 2). Images were viewed with a Fluoview FV10i confocal microscope system (Olympus). Images were then analyzed using image J software and the presence or absence of co-localization was assessed by calculating the Pearson's coefficient.
Fluorescein (FITC)-labeled glucan shells were prepared as previously described (Tesz, et al. 2011 Biochemical Journal 436:351-362). To prepare a GeRP dose for one rat, 50 nmoles siRNA (Dharmacon) were incubated with 500 nmoles Endo-Porter (Gene Tools) in 30 mM sodium acetate pH 4.8 for 15 min at RT in a final volume of 200 μl. The siRNA/Endo-Porter solution was added to 10 mg ([…]) of FITC-glucan shells and then vortexed and incubated for 1 hour. The siRNA loaded GeRPs were then resuspended in 5 ml PBS and sonicated to ensure homogeneity of the GeRP preparation. […]
Total mRNA from the liver, pancreas and kidney were extracted with Trizol (Invitrogen), while total mRNA from cells was extracted using RNEASY™ Mini Kit (Qiagen). […] QUANTITECT™ Primer Assays were used to detect gene expression (Table 3, which lists the primers used for rat and mice (tissue)). […]

sense GCAUCAAGAGCACCGUUAAUU (SEQ ID NO: 9), antisense UUAACGGUGCUCUUGAUGCUU (SEQ ID NO: 10) (listed as RNA, chemistry not given here) [siRNA C, siRNA directed against rat CB1R, selected for in vivo use]
degree of knockdown among the four siRNA sequences (CB1R mRNA; rat CB1R siRNAs A-D): greatest degree of knockdown
suppression of CB1R mRNA (CB1R mRNA; thioglycollate-induced PEC, 48 h, dose-dependent, preliminary experiments): > 95%
CB2R mRNA (CB2R mRNA): no change
glycemia and insulinemia [1]: remained normoglycemic and hyperinsulinemic
insulin expression and content in islets [1]: increased
macrophage infiltration and expression of Nlrp3-ASC, IL-1β, IL-18, MCP-1 and CB1R [1]: decreased

Reference: patent publication US10077446B2, “Glucan-encapsulated siRNA for treating type 2 diabetes mellitus” (The United States of America, as represented by THE …, priority 2013, dated 2018)
